Measured values taken from publication PMC9005681, “Use of AD Informer Set compounds to explore validity of novel targets in Alzheimer's disease pathology” (Alzheimer's & Dementia : Translational Research & Clinical …, 2022).

How the values were obtained:
Experiment in all cases: PDSP GPCR panel primary binding assays at 10 μM
[1] = target: T1, cloned human or rodent CNS receptors, channels, and transporters (PDSP panel) (Homo sapiens, UniProt P08172); conditions: M2, primary assay
T1 construct: expressed in transfected cells
T1 sequence (P08172 1-466): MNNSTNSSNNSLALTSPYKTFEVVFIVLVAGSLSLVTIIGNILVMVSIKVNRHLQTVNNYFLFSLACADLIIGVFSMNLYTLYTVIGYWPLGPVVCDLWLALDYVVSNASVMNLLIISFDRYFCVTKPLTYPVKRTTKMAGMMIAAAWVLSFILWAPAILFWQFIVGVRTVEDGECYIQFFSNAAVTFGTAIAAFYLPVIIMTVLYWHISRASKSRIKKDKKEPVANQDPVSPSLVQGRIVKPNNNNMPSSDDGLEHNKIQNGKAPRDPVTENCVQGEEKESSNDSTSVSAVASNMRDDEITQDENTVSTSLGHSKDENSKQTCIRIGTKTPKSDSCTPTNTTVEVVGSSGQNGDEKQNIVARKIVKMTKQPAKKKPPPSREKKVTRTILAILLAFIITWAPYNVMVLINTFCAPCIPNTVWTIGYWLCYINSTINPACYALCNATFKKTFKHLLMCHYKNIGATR
In short: (§1)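 Radioligand displacement at cloned human or rodent CNS targets: 46–47 primary binding assays run in quadruplicate at 10 μM. Targets where the compound displaced an average of >50% of radiolabeled standard ligand went to secondary binding in 11-point dose-response, in triplicate; none run for H3, PBR or GABAA.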

[2] = target: T2, cloned human or rodent CNS receptors, channels, and transporters (PDSP panel) (Homo sapiens, UniProt P20309); conditions: M3, primary assay
T2 construct: expressed in transfected cells
In short: as §1

[3] = target: T3, cloned human or rodent CNS receptors, channels, and transporters (PDSP panel) (Homo sapiens, UniProt Q01959); conditions: DAT, primary assay
T3 construct: expressed in transfected cells
In short: as §1

[4] = target: T4, cloned human or rodent CNS receptors, channels, and transporters (PDSP panel) (Homo sapiens, UniProt P25021); conditions: H2, primary assay
T4 construct: expressed in transfected cells
In short: as §1

[5] = target: T5, cloned human or rodent CNS receptors, channels, and transporters (PDSP panel) (Homo sapiens, UniProt P18089); conditions: Alpha2B, primary assay
T5 construct: expressed in transfected cells
T5 sequence (P18089 1-450): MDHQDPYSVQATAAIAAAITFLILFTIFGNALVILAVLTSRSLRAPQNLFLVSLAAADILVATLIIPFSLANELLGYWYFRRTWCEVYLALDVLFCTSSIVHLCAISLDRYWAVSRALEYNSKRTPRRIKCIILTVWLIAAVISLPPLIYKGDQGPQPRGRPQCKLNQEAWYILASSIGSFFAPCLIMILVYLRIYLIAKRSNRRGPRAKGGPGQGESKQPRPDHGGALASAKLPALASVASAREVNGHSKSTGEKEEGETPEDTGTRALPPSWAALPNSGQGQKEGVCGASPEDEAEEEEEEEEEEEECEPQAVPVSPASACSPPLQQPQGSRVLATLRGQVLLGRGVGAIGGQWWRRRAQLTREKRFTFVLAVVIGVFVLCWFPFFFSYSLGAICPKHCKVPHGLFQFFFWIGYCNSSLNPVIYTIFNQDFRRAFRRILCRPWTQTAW
In short: as §1

[6] = target: T6, cloned human or rodent CNS receptors, channels, and transporters (PDSP panel) (Homo sapiens, UniProt P25100); conditions: Alpha1D, primary assay
T6 construct: expressed in transfected cells
T6 sequence (P25100 1-572): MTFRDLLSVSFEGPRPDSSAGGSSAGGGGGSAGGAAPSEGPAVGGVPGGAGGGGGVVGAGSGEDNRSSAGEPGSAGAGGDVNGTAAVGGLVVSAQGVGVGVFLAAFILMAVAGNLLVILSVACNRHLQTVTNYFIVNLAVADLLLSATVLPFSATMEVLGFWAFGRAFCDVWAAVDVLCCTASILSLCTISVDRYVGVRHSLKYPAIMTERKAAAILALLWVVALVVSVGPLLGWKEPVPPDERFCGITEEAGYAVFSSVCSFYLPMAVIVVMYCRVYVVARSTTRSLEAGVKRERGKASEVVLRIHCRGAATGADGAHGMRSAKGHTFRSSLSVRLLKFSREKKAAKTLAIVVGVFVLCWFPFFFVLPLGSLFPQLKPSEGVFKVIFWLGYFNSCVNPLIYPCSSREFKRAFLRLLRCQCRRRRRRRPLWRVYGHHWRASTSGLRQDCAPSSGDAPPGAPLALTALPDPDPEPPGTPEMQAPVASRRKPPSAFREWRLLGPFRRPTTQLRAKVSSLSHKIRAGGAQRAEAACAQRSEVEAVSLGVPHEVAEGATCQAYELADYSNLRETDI
In short: as §1

[7] = target: T7, cloned human or rodent CNS receptors, channels, and transporters (PDSP panel) (Homo sapiens, UniProt P28566); conditions: 5-HT1E, primary assay
T7 construct: expressed in transfected cells
In short: as §1

[8] = target: T8, cloned human or rodent CNS receptors, channels, and transporters (PDSP panel) (Homo sapiens, UniProt P35372); conditions: MOR, primary assay
T8 construct: expressed in transfected cells
In short: as §1

T2 sequence (P20309 whole entry): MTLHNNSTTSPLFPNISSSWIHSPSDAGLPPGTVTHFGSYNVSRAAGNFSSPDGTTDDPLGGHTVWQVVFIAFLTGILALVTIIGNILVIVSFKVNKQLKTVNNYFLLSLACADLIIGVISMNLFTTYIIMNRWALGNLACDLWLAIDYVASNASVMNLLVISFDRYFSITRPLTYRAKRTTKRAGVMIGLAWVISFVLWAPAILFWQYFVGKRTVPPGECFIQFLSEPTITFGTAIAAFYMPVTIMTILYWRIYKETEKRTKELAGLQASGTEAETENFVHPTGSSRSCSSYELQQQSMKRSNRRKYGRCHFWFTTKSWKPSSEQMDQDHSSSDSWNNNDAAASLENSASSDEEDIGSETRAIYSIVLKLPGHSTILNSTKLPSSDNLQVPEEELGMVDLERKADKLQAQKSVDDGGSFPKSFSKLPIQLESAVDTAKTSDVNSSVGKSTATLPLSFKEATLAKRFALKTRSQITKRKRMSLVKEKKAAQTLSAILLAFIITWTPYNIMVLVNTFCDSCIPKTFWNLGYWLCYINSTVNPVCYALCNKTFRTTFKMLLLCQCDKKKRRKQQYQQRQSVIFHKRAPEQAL
T7 sequence (P28566 whole entry): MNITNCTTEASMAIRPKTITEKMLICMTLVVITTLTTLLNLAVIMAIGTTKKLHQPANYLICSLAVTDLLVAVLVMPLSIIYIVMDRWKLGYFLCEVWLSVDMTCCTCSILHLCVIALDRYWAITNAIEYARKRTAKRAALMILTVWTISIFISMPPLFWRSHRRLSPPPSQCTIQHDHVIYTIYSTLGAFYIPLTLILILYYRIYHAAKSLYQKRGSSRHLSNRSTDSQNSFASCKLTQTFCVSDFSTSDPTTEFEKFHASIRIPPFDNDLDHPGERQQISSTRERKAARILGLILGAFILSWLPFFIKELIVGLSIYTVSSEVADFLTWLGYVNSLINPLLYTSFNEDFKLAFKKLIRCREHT
T8 sequence (P35372 whole entry): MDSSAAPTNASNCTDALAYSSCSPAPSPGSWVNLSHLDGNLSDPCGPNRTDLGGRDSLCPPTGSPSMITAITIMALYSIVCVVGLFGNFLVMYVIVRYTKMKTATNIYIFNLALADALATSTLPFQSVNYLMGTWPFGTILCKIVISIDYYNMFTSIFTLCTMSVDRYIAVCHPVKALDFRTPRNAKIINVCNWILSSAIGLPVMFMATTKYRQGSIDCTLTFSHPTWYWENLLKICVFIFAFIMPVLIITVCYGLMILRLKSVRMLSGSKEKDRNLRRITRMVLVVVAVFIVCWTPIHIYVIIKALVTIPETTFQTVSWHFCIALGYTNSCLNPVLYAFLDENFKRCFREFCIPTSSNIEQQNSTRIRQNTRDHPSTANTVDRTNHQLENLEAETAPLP
T4 sequence (P25021 whole entry): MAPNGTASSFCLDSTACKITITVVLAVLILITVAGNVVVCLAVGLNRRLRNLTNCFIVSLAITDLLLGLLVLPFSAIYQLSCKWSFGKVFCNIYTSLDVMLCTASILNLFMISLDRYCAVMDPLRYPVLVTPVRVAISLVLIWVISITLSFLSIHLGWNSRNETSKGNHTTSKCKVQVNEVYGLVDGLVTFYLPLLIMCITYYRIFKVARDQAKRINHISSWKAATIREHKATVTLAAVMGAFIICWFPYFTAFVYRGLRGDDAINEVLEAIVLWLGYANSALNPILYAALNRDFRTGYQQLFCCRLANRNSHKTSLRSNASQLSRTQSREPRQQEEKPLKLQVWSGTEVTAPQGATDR
T3 sequence (Q01959 whole entry): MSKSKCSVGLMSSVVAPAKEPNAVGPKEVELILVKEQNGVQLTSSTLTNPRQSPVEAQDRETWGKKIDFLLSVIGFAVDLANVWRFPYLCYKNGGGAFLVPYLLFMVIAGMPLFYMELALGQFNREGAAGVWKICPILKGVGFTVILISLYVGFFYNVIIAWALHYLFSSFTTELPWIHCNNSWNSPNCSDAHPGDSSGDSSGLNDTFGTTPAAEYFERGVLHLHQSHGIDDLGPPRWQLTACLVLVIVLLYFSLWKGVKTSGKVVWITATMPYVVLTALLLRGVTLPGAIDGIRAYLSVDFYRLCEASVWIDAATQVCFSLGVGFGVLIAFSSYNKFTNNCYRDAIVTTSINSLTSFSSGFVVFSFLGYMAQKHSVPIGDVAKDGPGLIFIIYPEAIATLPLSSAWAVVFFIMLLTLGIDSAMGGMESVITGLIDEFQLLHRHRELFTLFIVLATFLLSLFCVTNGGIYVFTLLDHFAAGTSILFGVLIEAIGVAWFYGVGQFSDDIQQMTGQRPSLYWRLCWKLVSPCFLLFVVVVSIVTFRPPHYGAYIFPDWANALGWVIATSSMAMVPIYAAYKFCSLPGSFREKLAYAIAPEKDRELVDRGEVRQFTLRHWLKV

- Mean % ([1]; mean inhibition): -9.25%
- Inhibition 1 ([1]; replicate 1): -13.73%
- Inhibition 2 ([1]; replicate 2): -23.07%
- Inhibition 3 ([1]; replicate 3): -14.72%
- Inhibition 4 ([1]; replicate 4): 14.53%
- Mean % ([2]; mean inhibition): 1.63%
- Inhibition 1 ([2]; replicate 1): 7.99%
- Inhibition 2 ([2]; replicate 2): 2.67%
- Inhibition 3 ([2]; replicate 3): -7.08%
- Inhibition 4 ([2]; replicate 4): 2.95%
- Mean % ([3]; mean inhibition): 54.13%
- Inhibition 1 ([3]; replicate 1): 56.61%
- Inhibition 2 ([3]; replicate 2): 53.37%
- Inhibition 3 ([3]; replicate 3): 54.99%
- Inhibition 4 ([3]; replicate 4): 51.53%
- Mean % ([4]; mean inhibition): -21%
- Inhibition 1 ([4]; replicate 1): -8.72%
- Inhibition 2 ([4]; replicate 2): -33.49%
- Inhibition 3 ([4]; replicate 3): -19.51%
- Inhibition 4 ([4]; replicate 4): -22.27%
- Mean % ([5]; mean inhibition): 9.85%
- Inhibition 1 ([5]; replicate 1): 12.19%
- Inhibition 2 ([5]; replicate 2): 4.49%
- Inhibition 3 ([5]; replicate 3): 0.5%
- Inhibition 4 ([5]; replicate 4): 22.22%
- Mean % ([6]; mean inhibition): -12.86%
- Inhibition 1 ([6]; replicate 1): -4.16%
- Inhibition 2 ([6]; replicate 2): -21.92%
- Inhibition 3 ([6]; replicate 3): -15.38%
- Inhibition 4 ([6]; replicate 4): -9.98%
- Mean % ([7]; mean inhibition): 1.71%
- Inhibition 1 ([7]; replicate 1): 1.79%
- Inhibition 2 ([7]; replicate 2): 6.56%
- Inhibition 3 ([7]; replicate 3): 8.79%
- Inhibition 4 ([7]; replicate 4): -10.29%
- Mean % ([8]; mean inhibition): -0.18%
- Inhibition 1 ([8]; replicate 1): -0.8%
- Inhibition 2 ([8]; replicate 2): 0.06%
- Inhibition 3 ([8]; replicate 3): 1.4%
- Inhibition 4 ([8]; replicate 4): -1.38%
Structure (SMILES): CNc1nc(C)nc(N[C@H]2CCC[C@@H](C(=O)NCc3ccc(C#N)cc3C(F)(F)F)C2)n1 [UNC10302679A, GSK2256294A]
